Measured values from PubChem BioAssay AID200 (DTP/NCI, 2004).
Values joined by “and” are separate entries in the source; they are usually repeats but may differ in a detail not shown here. Equal values may be shown once. Toxic doses and inconclusive results are not listed. Where a SMILES comes first, the peptide text is derived from it.

System: B6C3F1 mice, B16 melanoma ip, median survival T/C
Test: NCI In Vivo Anticancer Drug Screen. Data for tumor model B16 Melanoma (intraperitoneal) in B6C3F1 mice
Settings: endpoint: median survival time, schedule: Q01DX009 (ip), higher = longer survival
In short: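 Values are T/C ratios: the measurement in treated animals divided by that in vehicle-treated controls, using survival or tumor size in mice carrying transplantable tumors.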

[1] = dose: 25.0 mg/kg/injection, vehicle: Klucel (hydroxypropylcellulose) (HPC)
[2] = dose: 50.0 mg/kg/injection, vehicle: Klucel (hydroxypropylcellulose) (HPC)
[3] = dose: 100.0 mg/kg/injection, vehicle: Klucel (hydroxypropylcellulose) (HPC)
[4] = dose: 200.0 mg/kg/injection, vehicle: Klucel (hydroxypropylcellulose) (HPC)
[5] = dose: 12.0 mg/kg/injection, vehicle: Klucel (hydroxypropylcellulose) (HPC)
[6] = dose: 12.5 mg/kg/injection, vehicle: Klucel (hydroxypropylcellulose) (HPC)
[7] = dose: 12.5 mg/kg/injection, vehicle: saline
[8] = dose: 25.0 mg/kg/injection, vehicle: saline
[9] = dose: 50.0 mg/kg/injection, vehicle: saline
[10] = dose: 3.12 mg/kg/injection, vehicle: saline with Tween-80
[11] = dose: 6.25 mg/kg/injection, vehicle: saline with Tween-80
[12] = dose: 12.5 mg/kg/injection, vehicle: saline with Tween-80
[13] = dose: 25.0 mg/kg/injection, vehicle: saline with Tween-80
[14] = dose: 50.0 mg/kg/injection, vehicle: saline with Tween-80
[15] = dose: 400.0 mg/kg/injection, vehicle: Klucel (hydroxypropylcellulose) (HPC)
[16] = dose: 100.0 mg/kg/injection, vehicle: saline with Tween-80

Q: Which T/C (dose: 8.0 mg/kg/injection, vehicle: Klucel (hydroxypropylcellulose) (HPC)) does the source give for `CC(C)C1C(=O)N2CCCC2C2(O)OC(NC(=O)C3C=C4c5cccc6[nH]cc(c56)CC4N(C)C3)(C(C)C)C(=O)N12` (centres undefined) here?
A: Its T/C is 106 % of control.

Q: And the T/C (dose: 16.0 mg/kg/injection, vehicle: Klucel (hydroxypropylcellulose) (HPC))?
A: The T/C was 109 % of control.

Q: And the T/C (dose: 32.0 mg/kg/injection, vehicle: Klucel (hydroxypropylcellulose) (HPC))?
A: The T/C was 117 % of control.

Q: And the T/C (dose: 64.0 mg/kg/injection, vehicle: Klucel (hydroxypropylcellulose) (HPC))?
A: Its T/C is 105 % of control.

Q: Which results are given for `CCC1OCC(C(Cl)CCl)O1` (centres undefined)?
A: T/C [1]: 105 % of control; T/C [2]: 96 % of control; T/C [3]: 91 % of control; T/C [4]: 98 % of control

Q: Which results are given for `COc1ccc(-c2c3c(cc4cc5c(cc24)OCO5)C(=O)OC3)cc1OC`?
A: T/C (dose: 6.0 mg/kg/injection, vehicle: Klucel (hydroxypropylcellulose) (HPC)): 100 % of control; T/C [5]: 117 % of control and 105 % of control; T/C (dose: 24.0 mg/kg/injection, vehicle: Klucel (hydroxypropylcellulose) (HPC)): 88 % of control and 99 % of control

Q: What does the source list for `NC(=O)CC(NC(=O)OCC1c2ccccc2-c2ccccc21)C(=O)O` (centres undefined)?
A: T/C [6]: 116 % of control; T/C [1]: 107 % of control

Q: What does the source list for `C[N+](C)(C)c1ncnc2nc[nH]c12`?
A: T/C [7]: 98 % of control; T/C [8]: 100 % of control; T/C [9]: 114 % of control and 88 % of control; T/C (dose: 100.0 mg/kg/injection, vehicle: saline): 93 % of control and 103 % of control; T/C (dose: 200.0 mg/kg/injection, vehicle: saline): 93 % of control

Q: What does the source list for `NCC(O)c1ccc(O)c(O)c1` (centres undefined)?
A: T/C (dose: 0.39 mg/kg/injection, vehicle: suspension in saline): 109 % of control; T/C (dose: 0.75 mg/kg/injection, vehicle: suspension in saline): 96 % of control; T/C (dose: 1.5 mg/kg/injection, vehicle: suspension in saline): 103 % of control; T/C (dose: 3.0 mg/kg/injection, vehicle: suspension in saline): 100 % of control; T/C (dose: 6.0 mg/kg/injection, vehicle: suspension in saline): 100 % of control and 106 % of control; T/C (dose: 12.0 mg/kg/injection, vehicle: suspension in saline): 124 % of control and 105 % of control; T/C (dose: 24.0 mg/kg/injection, vehicle: suspension in saline): 100 % of control

Q: Which T/C (dose: 10.0 mg/kg/injection, vehicle: saline) does the source give for `CC1CCOS(=O)O1` (centres undefined) here?
A: Its T/C is 104 % of control.

Q: And the T/C (dose: 20.0 mg/kg/injection, vehicle: saline)?
A: Its T/C is 123 % of control.

Q: And the T/C (dose: 40.0 mg/kg/injection, vehicle: saline)?
A: Its T/C is 110 % of control.

Q: How did the T/C (dose: 3.12 mg/kg/injection, vehicle: Klucel (hydroxypropylcellulose) (HPC)) turn out when `C=C(C)[C@@H]1CCc2c(O)c(O)c(=O)cc(C)c2C1` was run?
A: The T/C was 100 % of control.

Q: And the T/C [10]?
A: The T/C was 100 % of control.

Q: And the T/C (dose: 6.25 mg/kg/injection, vehicle: Klucel (hydroxypropylcellulose) (HPC))?
A: The T/C was 99 % of control.

Q: What about the T/C [11] of the same molecule?
A: The T/C was 100 % of control.

Q: What about the T/C [6] of the same molecule?
A: Its T/C is 104 % of control.

Q: What about the T/C [12] of the same molecule?
A: Its T/C is 95 % of control.

Q: And the T/C [7]?
A: Its T/C is 100 % of control.

Q: What about the T/C [1] of the same molecule?
A: The T/C was 112 % of control.

Q: What about the T/C [13] of the same molecule?
A: The T/C was 102 % of control.

Q: What about the T/C [8] of the same molecule?
A: Its T/C is 115 % of control.

Q: And the T/C [2]?
A: Its T/C is 99 % of control.

Q: What about the T/C [14] of the same molecule?
A: The T/C was 110 % of control.

Q: And the T/C [3]?
A: Its T/C is 102 % of control.

Q: How did the T/C (dose: 1.56 mg/kg/injection, vehicle: water) turn out when `CCN(CC)CCn1[nH]c2c3ccc(=O)cc3sc3c(NCCN)ccc1c32` was run?
A: The T/C was 161 % of control.

Q: And the T/C (dose: 1.7 mg/kg/injection, vehicle: water)?
A: Its T/C is 189 % of control.

Q: And the T/C (dose: 2.7 mg/kg/injection, vehicle: water)?
A: The T/C was 225 % of control.

Q: What about the T/C (dose: 4.5 mg/kg/injection, vehicle: water) of the same molecule?
A: Its T/C is 270 % of control.

Q: And the T/C (dose: 7.5 mg/kg/injection, vehicle: water)?
A: The T/C was 281 % of control.

Q: What about the T/C (dose: 12.5 mg/kg/injection, vehicle: water) of the same molecule?
A: The T/C was 161 % of control and 264 % of control.

Q: With `Nc1ccc(S(=O)(=O)Nc2cnc3c(Cl)cccc3n2)cc1` as the molecule, how does the T/C (dose: 50.0 mg/kg/injection, vehicle: DMSO) read?
A: Its T/C is 97 % of control.

Q: And the T/C (dose: 100.0 mg/kg/injection, vehicle: DMSO)?
A: Its T/C is 100 % of control.

Q: And the T/C (dose: 200.0 mg/kg/injection, vehicle: DMSO)?
A: Its T/C is 116 % of control.

Q: What about the T/C (dose: 400.0 mg/kg/injection, vehicle: DMSO) of the same molecule?
A: Its T/C is 105 % of control.

Q: With `CCCC(NC(=O)CNC(=O)CNC(=O)OCc1ccccc1)C(=O)O` (centres undefined) (HELM PEPTIDE1{[O=C(OCc1ccccc1)[*:2]].G.G.[CCCC(N[*:1])C(=O)O]}$$$$V2.0) as the molecule, how does the T/C [3] read?
A: Its T/C is 105 % of control.

Q: What about the T/C [4] of the same molecule?
A: The T/C was 103 % of control.

Q: What about the T/C [15] of the same molecule?
A: Its T/C is 112 % of control.

Q: Which results are given for `NC(=O)CCC(NC(=O)OCc1ccccc1)C(=O)NCC(=O)O` (centres undefined)?
A: T/C [5]: 110 % of control; T/C [1]: 98 % of control; T/C [2]: 118 % of control; T/C [3]: 95 % of control; T/C [4]: 98 % of control; T/C [15]: 103 % of control

Q: Which T/C [10] does the source give for `O=C(CO)c1ccc([N+](=O)[O-])cc1` here?
A: The T/C was 113 % of control.

Q: And the T/C [11]?
A: The T/C was 94 % of control.

Q: And the T/C [13]?
A: Its T/C is 105 % of control.

Q: And the T/C [14]?
A: Its T/C is 100 % of control.

Q: And the T/C [16]?
A: The T/C was 93 % of control.

Q: `COc1cc(OC)c(NC(=O)ON2C(=O)c3ccccc3C2=O)cc1Cl` was tested. Which T/C [10] did it give?
A: Its T/C is 98 % of control.

Q: And the T/C [11]?
A: The T/C was 104 % of control.

Q: And the T/C [12]?
A: Its T/C is 104 % of control.

Q: What about the T/C [13] of the same molecule?
A: Its T/C is 96 % of control.

Q: And the T/C [14]?
A: Its T/C is 87 % of control.

Q: For `O=C(O)/C=C/C(=O)N1Cc2cc3ccccc3nc2C1`, which T/C [12] is on record?
A: The T/C was 110 % of control.

Q: What about the T/C [13] of the same molecule?
A: Its T/C is 99 % of control.

Q: What about the T/C [14] of the same molecule?
A: The T/C was 98 % of control.

Q: What about the T/C [16] of the same molecule?
A: The T/C was 94 % of control.

Q: What about the T/C (dose: 200.0 mg/kg/injection, vehicle: saline with Tween-80) of the same molecule?
A: Its T/C is 95 % of control.

Q: `CCCCOc1ccc(C(=O)SCCCN=C(N)N)cc1` was tested. Which T/C (dose: 3.12 mg/kg/injection, vehicle: suspension in saline) did it give?
A: The T/C was 92 % of control.

Q: What about the T/C (dose: 6.25 mg/kg/injection, vehicle: suspension in saline) of the same molecule?
A: Its T/C is 97 % of control.

Q: What about the T/C (dose: 25.0 mg/kg/injection, vehicle: suspension in saline) of the same molecule?
A: The T/C was 87 % of control.

Q: Which results are given for `O=CC(=O)c1ccc(O)cc1`?
A: T/C (dose: 6.25 mg/kg/injection, vehicle: saline): 94 % of control; T/C [7]: 99 % of control; T/C [8]: 108 % of control; T/C [9]: 120 % of control

Q: With `O=Cc1c(O)c2ccccc2[nH]c1=O` as the molecule, how does the T/C [11] read?
A: Its T/C is 109 % of control and 107 % of control.

Q: What about the T/C [12] of the same molecule?
A: Its T/C is 108 % of control and 105 % of control.

Q: And the T/C [13]?
A: Its T/C is 119 % of control.

Q: What does the source list for `Cc1cc(NCCCN(C)C)c2ccc3c(ccc4c(NCCCN(C)C)cc(C)nc43)c2n1`?
A: T/C (dose: 0.19 mg/kg/injection, vehicle: saline): 114 % of control; T/C (dose: 0.39 mg/kg/injection, vehicle: saline): 102 % of control; T/C (dose: 0.78 mg/kg/injection, vehicle: saline): 91 % of control; T/C (dose: 1.56 mg/kg/injection, vehicle: saline): 106 % of control; T/C (dose: 3.12 mg/kg/injection, vehicle: saline): 113 % of control and 102 % of control

Q: Which results are given for `CCN1C[C@]2(COC)[C@H](O)C[C@H](OC)[C@]34C1[C@H]([C@H](OC)[C@H]23)[C@]1(OC(C)=O)[C@H]2[C@@H](OC(=O)c3ccccc3)[C@](O)(C[C@H]24)[C@@H](OC)[C@@H]1O`?
A: T/C (dose: 7.5 micrograms/kg/injection, vehicle: saline): 118 % of control; T/C (dose: 15.0 micrograms/kg/injection, vehicle: saline): 115 % of control; T/C (dose: 30.0 micrograms/kg/injection, vehicle: saline): 99 % of control; T/C (dose: 60.0 micrograms/kg/injection, vehicle: saline): 122 % of control
